Reference: PubChem BioAssay AID248 (DTP/NCI, 2004)
Toxic doses and inconclusive results are not listed. No stated cut-off is given here; in the data, active means T/C of 150% or more; inactive means T/C below 125%.

System: L1210 leukemia ip in BDF1 mice, survival T/C
Experiment: NCI In Vivo Anticancer Drug Screen. Data for tumor model L1210 Leukemia (intraperitoneal) in B6D2F1 (BDF1) mice
Settings: endpoint: mean survival time, higher = longer survival
Procedure, shortened: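 In this screen, tumor-bearing mice given compound are compared to those given vehicle, and their survival values are reported as a treated-to-control quotient.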

Measured: T/C

CC(=O)OC1COC(Cl)C(OC(C)=O)C1OC(C)=O (configuration not stated)
inactive: dose: 100.0 mg/kg/injection, schedule: Q01DX001 (sc), vehicle: olive oil, sesame oil, peanut oil 103 % of control | dose: 200.0 mg/kg/injection, schedule: Q01DX001 (sc), vehicle: olive oil, sesame oil, peanut oil 97 % of control | dose: 400.0 mg/kg/injection, schedule: Q01DX001 (sc), vehicle: olive oil, sesame oil, peanut oil 97 % of control

CC(=O)OCC(=O)[C@@]1(O)CC[C@H]2[C@@H]3C[C@H](C)C4=CC(=O)C=C[C@]4(C)[C@@]3(F)[C@@H](O)C[C@@]21C
inactive: dose: 100.0 mg/kg/injection, schedule: Q01DX009 (ip), vehicle: saline 103 % of control | dose: 100.0 mg/kg/injection, schedule: Q04DX003 (ip), vehicle: saline 94 % of control | dose: 200.0 mg/kg/injection, schedule: Q01DX009 (ip), vehicle: saline 92 % of control | dose: 200.0 mg/kg/injection, schedule: Q04DX003 (ip), vehicle: saline 111 % of control | dose: 400.0 mg/kg/injection, schedule: Q01DX009 (ip), vehicle: saline 108 % of control | dose: 400.0 mg/kg/injection, schedule: Q04DX003 (ip), vehicle: saline 103 % of control

CCCCN(CCCC)c1ccc([N+](=O)[O-])c2no[n+]([O-])c12
inactive: dose: 15.0 mg/kg/injection, schedule: Q04DX003 (ip), vehicle: saline with Tween-80 100 % of control | dose: 30.0 mg/kg/injection, schedule: Q04DX003 (ip), vehicle: saline with Tween-80 100 % of control | dose: 60.0 mg/kg/injection, schedule: Q04DX003 (ip), vehicle: saline with Tween-80 100 % of control
